The assay deals with Trypsin (Homo sapiens, UniProt P07477+P07478+P35030). Kind of assay: Inhibition of trypsin (unknown origin). It is filed as protein assay.

Structures are written as SMILES.

The term IC50 denotes the concentration that inhibits the measured activity by half. Low readings indicate inhibition by little substance, high ones a need for much substance. In turn, `CC[C@H](C)[C@@H](NC(=O)[C@@H](O)Cc1ccc(O)c(Cl)c1)C(=O)N1[C@H](C(=O)NCCCCNC(=N)N)C[C@@H]2CC[C@@H](O)C[C@@H]21` came in with an IC50 of 2.8 µM.

For the compound `N=C(N)NCCCCNC(=O)[C@@H]1C[C@@H]2CC[C@@H](O)C[C@@H]2N1C(=O)[C@H](Cc1ccccc1)NC(=O)[C@@H](O)Cc1ccc(O)cc1`, the IC50 was 0.5 mg/L.

Consider `CC(C)C[C@@H](NC(=O)[C@H](O)Cc1ccc(O)c(Br)c1)C(=O)N1[C@H](C(=O)NCCCCNC(=N)N)C[C@@H]2CC[C@@H](O)C[C@@H]21`, for which the concentration for half-maximal inhibition (IC50) is 4.1 µM.

Consider `CC(C)C[C@@H](NC(=O)[C@H](O)Cc1ccc(O)c(Cl)c1)C(=O)N1[C@H](C(=O)NCCCCNC(=N)N)C[C@@H]2CC[C@@H](O)C[C@@H]21`, for which the 50% inhibitory concentration (IC50) was determined as 4.3 µM.

(Values after ChEMBL document CHEMBL2384948, “Aeruginosins from a Microcystis sp. bloom material collected in Varanasi, India” (J Nat Prod, 2013).)
